“Also recorded” adds a separate entry of the source.
Tests used:
ocular surface = experiment: Ocular surface potential difference measurements; type: in vivo, mouse; conditions: wild-type mice, 1-10 μM
Description: Ocular surface potential difference measurements. Open-circuit transepithelial PD were measured continuously in anesthetized mice in response to serial perfusions of different solutions over the ocular surface, as described (21). Mice were anesthetized with Avertin (2,2,2-tribromoethanol, 125 mg/kg intraperitoneal, Sigma-Aldrich, St. Louis, Mo., USA), and core temperature was maintained at 37° C. using a heating pad. Eyes were oriented with the cornea and conjunctiva facing upward and exposed by retracting the eyelid with cross-action forceps. Solutions were isosmolar (320±10 mOsM; compositions provided in ref. 21) and contained 10μ[…] □ indomethacin to prevent CFTR activation by prostaglandins. The ocular surface was perfused at 6 mL/min through plastic tubing using a multireservoir gravity pinch-valve system (ALA Scientific, Westbury, N.Y., USA) and variable-flow peristaltic pump (medium flow model; Fisher Scientific, Fair Lawn, N.J., USA). A probe catheter was fixed 1 mm above the cornea using a micropositioner and a suction cannula was positioned 3 mm from the orbit. The measuring electrode was in contact to the perfusion catheter and connected to a high-impedance voltmeter (IsoMilivolt Meter; WPI). The reference electrode was grounded via a winged 21-gauge needle filled with isosmolar saline, and inserted subcutaneously in the abdomen. Measuring and reference electrodes consisted of Ag/AgCl with 3 M KCl agar bridges.
Ocular surface potential difference measurements. Open-circuit transepithelial PD were measured continuously in anesthetized mice in response to serial perfusions of different solutions over the ocular surface, as described (21). Mice were anesthetized with Avertin (2,2,2-tribromoethanol, 125 mg/kg intraperitoneal, Sigma-Aldrich, St. Louis, Mo., USA), and core temperature was maintained at 37° C. using a heating pad. Eyes were oriented with the cornea and conjunctiva facing upward and exposed by retracting the eyelid with cross-action forceps. […]

cAMP = cAMP GloSensor luminescence assay in FRT cells; type: cell-based, rat; conditions: 5 μM, 10 min
Description: cAMP assay. Intracellular cAMP activity was measured using a GloSensor luminescence assay (Promega Corp., Madison, Wisconson, USA). FRT null cells were stably transfected with the pGloSensor cAMP plasmid and plated onto white 96-well microplates and grown to confluence. Cells were washed three times with PBS and incubated with 5 μM CFTRact-J027 for 10 min in the absence and presence of 100 nM forskolin. cAMP was assayed according to the manufacturer's instructions.
cAMP and cytotoxicity assays. Intracellular cAMP activity was measured using a GloSensor luminescence assay (Promega Corp., Madison, Wis., USA). FRT cells stably transfected with the pGloSensor cAMP plasmid (Promega Corp.) were cultured in white 96-well microplates (Corning Costar) overnight. Cells were then washed three times with PBS and incubated with 5 μM test compound for 10 min in the absence and presence of 100 nM forskolin.

human wild-type CFTR = molecular target: T1, human wild-type CFTR (Homo sapiens, UniProt P13569); experiment: Short-circuit current in FRT cells expressing wild-type human CFTR; type: cell-based; conditions: short-circuit current, wild-type CFTR
T1 construct: expressed in transfected cells
Description: Short-circuit current measurement. Short-circuit current was measured in FRT cells stably expressing wild-type human CFTR cultured on porous filters as described. The basolateral solution contained 130 mM NaCl, 2.7 mM KCl, 1.5 mM KH2PO4, 1 mM CaCl2, 0.5 mM MgCl2, 10 mM glucose, and 10 mM Na-HEPES (pH 7.3, 37° C.). In the apical solution 65 mM NaCl was replaced by Na gluconate, and CaCl2 was increased to 2 mM, and the basolateral membrane was permeabilized with 250 μg/ml amphotericin B. Short-circuit current was measured in freshly harvested adult mouse colon at 37° C. using symmetrical Krebs-bicarbonate buffer.
Short-circuit current. Fischer rat thyroid (FRT) cells stably expressing wild-type human CFTR were cultured on Snapwell inserts (Corning Costar, Corning N.Y., USA) for short-circuit current (Isc) measurements. After 6-9 days in culture, when the transepithelial resistance was >1000 Ω/cm^2, the inserts were mounted in an Ussing chamber system (World Precision Instruments, Sarasota, Fla., USA). The basolateral solution contained 130 mM NaCl, 2.7 mM KCl, 1.5 mM KH2PO4, 1 mM CaCl2, 0.5 mM MgCl2, 10 mM glucose, and 10 mM Na-HEPES (pH 7.3). In the apical bathing solution, 65 mM NaCl was replaced by Na gluconate, and CaCl2 was increased to 2 mM. Both solutions were bubbled with air and maintained at 37° C. The basolateral membrane was permeabilized with 250 μg/ml amphotericin B (26, 27). Hemichambers were connected to a DVC-1000 voltage clamp via Ag/AgCl electrodes and 3 M KCl agar bridges for Isc recording.

T1 sequence (P13569 whole entry): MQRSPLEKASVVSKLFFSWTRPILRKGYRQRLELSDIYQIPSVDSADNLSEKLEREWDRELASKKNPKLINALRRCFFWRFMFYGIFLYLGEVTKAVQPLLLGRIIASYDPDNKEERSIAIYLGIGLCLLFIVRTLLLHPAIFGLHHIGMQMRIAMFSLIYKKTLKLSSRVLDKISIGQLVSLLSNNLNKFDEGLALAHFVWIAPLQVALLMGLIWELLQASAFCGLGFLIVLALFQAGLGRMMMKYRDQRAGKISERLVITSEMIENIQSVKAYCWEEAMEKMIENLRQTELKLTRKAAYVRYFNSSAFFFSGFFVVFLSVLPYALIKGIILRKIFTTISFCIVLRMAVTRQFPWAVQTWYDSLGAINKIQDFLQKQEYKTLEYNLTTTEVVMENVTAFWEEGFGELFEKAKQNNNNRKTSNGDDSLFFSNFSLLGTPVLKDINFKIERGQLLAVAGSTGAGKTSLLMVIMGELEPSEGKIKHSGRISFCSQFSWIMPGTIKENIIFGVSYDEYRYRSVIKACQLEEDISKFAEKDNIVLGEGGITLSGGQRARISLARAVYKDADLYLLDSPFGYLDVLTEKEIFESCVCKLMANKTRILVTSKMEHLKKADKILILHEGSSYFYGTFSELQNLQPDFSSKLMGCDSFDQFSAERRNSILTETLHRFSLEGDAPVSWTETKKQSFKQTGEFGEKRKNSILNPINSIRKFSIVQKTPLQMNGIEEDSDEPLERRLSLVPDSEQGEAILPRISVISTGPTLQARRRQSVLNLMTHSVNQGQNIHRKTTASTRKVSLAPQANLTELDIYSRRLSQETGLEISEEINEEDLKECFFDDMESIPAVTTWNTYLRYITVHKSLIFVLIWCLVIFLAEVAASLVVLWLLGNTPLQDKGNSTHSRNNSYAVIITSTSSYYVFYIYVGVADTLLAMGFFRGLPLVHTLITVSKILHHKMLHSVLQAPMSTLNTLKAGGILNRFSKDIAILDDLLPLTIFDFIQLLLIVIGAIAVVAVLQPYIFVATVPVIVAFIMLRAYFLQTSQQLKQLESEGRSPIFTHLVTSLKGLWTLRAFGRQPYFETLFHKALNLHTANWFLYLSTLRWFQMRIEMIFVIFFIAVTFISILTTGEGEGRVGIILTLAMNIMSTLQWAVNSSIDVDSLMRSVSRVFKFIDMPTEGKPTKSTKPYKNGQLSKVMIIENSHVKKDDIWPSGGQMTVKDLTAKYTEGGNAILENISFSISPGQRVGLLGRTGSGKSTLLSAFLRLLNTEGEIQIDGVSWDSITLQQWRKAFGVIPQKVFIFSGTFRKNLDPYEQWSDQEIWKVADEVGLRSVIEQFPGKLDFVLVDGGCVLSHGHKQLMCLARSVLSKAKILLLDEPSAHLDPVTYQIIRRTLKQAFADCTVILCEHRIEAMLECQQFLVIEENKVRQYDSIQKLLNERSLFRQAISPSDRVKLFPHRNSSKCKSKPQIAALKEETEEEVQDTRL

Nc1ccc([N+](=O)[O-])cc1-c1nc2ccccc2n(Cc2ccccc2)c1=O [CFTRact-J027, 3-(2-amino-5-nitrophenyl)-1-benzylquinoxalin-2(1H)-one]
change in ocular surface PD (in words) (ocular surface): large hyperpolarizations | cellular cAMP elevation, compound alone (cAMP): without causing elevation of cytoplasmic cAMP; also recorded: does not elevate cellular cAMP | cAMP when added together with forskolin (cAMP; forskolin 100 nM): does not further increase cAMP | CFTR activation (in words) (human wild-type CFTR): fully activated CFTR chloride conductance

Reference: patent publication US11192869B2, “CFTR regulators and methods of use thereof” (THE REGENTS OF THE UNIVERSITY OF CALIFORNIA, priority 2015, dated 2021)
